Common to all, as to assay: KINOMEscan competitive binding
One assay addresses T1, PAK7/PAK5 (Homo sapiens, UniProt Q9P286).
T1 construct: purchased DiscoverX (KINOMEscan)
The conditions noted are these: n=1, read-out: Percent inhibition, PAK7/PAK5.

For the next assay, the target named is T2, PKAC-alpha (Homo sapiens, UniProt P17612).
T2 construct: purchased DiscoverX (KINOMEscan)
The conditions noted are these: n=1, read-out: Percent inhibition, PKAC-alpha.

Another assay has as its target T3, PRKCH (Homo sapiens, UniProt P24723).
T3 construct: purchased DiscoverX (KINOMEscan)
The conditions noted are these: n=1, read-out: Percent inhibition, PRKCH.

A further assay deals with T4, PTK2 (Homo sapiens, UniProt Q05397).
T4 construct: purchased DiscoverX (KINOMEscan)
T4 sequence (Q05397 whole entry): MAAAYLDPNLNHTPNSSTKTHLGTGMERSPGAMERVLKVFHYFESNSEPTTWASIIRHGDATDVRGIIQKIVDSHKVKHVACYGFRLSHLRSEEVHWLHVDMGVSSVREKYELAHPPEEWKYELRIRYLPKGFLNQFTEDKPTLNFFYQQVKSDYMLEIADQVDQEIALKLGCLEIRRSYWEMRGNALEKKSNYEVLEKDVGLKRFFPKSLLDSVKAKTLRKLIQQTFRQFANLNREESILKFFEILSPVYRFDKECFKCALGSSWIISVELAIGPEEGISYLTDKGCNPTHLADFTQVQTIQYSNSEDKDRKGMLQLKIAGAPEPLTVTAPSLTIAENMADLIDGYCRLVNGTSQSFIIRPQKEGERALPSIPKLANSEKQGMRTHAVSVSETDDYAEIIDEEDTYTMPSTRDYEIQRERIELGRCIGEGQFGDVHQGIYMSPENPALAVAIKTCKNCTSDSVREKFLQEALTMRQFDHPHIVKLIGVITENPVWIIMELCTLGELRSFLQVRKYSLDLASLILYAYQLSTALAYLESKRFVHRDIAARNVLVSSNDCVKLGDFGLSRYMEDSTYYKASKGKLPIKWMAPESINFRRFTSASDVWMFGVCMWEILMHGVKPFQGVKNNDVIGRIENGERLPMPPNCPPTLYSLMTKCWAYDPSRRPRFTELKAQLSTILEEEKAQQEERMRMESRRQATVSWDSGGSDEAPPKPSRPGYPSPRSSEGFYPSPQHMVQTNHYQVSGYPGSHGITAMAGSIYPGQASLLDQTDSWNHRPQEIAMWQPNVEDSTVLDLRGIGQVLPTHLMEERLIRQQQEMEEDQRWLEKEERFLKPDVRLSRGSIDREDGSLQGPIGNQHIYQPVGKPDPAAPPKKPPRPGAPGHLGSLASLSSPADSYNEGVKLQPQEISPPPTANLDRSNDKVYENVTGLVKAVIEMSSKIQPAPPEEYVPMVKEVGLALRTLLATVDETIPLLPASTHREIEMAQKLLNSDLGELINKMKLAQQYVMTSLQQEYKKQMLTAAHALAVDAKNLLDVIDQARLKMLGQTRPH
The conditions noted are these: n=1, read-out: Percent inhibition, PTK2.

For the next assay, the target named is T5, STK36 (Homo sapiens, UniProt Q9NRP7).
T5 construct: purchased DiscoverX (KINOMEscan)
T5 sequence (Q9NRP7 1-1315): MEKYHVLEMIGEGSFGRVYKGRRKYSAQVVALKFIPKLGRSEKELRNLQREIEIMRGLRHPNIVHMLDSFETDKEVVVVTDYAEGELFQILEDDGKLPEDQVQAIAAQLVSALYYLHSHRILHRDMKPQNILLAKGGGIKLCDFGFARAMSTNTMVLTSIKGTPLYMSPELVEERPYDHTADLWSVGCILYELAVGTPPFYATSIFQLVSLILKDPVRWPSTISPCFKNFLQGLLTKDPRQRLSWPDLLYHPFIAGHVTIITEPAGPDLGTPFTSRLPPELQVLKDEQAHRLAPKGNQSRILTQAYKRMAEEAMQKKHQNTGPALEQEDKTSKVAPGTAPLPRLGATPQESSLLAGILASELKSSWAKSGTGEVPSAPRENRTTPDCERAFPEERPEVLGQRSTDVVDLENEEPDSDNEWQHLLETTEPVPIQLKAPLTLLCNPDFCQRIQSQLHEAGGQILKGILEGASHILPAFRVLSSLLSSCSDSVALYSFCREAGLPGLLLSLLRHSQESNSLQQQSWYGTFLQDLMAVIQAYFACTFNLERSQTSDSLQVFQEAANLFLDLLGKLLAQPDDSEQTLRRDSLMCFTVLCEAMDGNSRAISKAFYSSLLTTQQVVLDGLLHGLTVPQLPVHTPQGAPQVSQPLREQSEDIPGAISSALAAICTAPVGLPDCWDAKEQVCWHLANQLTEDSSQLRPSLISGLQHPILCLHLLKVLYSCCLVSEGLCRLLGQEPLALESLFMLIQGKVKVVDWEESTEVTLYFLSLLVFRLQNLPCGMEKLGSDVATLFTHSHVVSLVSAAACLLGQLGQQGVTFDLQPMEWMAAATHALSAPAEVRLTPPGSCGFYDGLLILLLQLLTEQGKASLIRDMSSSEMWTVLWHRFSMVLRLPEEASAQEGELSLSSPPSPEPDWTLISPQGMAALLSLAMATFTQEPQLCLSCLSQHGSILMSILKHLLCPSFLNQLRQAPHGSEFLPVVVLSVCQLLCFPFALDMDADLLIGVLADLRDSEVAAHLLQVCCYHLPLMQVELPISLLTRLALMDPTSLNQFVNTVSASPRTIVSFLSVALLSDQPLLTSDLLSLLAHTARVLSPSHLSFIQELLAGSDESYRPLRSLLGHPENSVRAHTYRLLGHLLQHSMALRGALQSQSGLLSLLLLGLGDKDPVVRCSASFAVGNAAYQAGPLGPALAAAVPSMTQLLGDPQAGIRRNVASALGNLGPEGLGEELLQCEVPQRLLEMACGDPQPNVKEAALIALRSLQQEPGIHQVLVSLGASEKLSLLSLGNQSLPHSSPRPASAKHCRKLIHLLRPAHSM
Conditions: n=1, read-out: Percent inhibition, STK36.

The next assay concerns the target T6, TYRO3 (Homo sapiens, UniProt Q06418).
T6 construct: purchased DiscoverX (KINOMEscan)
T6 sequence (Q06418 41-890): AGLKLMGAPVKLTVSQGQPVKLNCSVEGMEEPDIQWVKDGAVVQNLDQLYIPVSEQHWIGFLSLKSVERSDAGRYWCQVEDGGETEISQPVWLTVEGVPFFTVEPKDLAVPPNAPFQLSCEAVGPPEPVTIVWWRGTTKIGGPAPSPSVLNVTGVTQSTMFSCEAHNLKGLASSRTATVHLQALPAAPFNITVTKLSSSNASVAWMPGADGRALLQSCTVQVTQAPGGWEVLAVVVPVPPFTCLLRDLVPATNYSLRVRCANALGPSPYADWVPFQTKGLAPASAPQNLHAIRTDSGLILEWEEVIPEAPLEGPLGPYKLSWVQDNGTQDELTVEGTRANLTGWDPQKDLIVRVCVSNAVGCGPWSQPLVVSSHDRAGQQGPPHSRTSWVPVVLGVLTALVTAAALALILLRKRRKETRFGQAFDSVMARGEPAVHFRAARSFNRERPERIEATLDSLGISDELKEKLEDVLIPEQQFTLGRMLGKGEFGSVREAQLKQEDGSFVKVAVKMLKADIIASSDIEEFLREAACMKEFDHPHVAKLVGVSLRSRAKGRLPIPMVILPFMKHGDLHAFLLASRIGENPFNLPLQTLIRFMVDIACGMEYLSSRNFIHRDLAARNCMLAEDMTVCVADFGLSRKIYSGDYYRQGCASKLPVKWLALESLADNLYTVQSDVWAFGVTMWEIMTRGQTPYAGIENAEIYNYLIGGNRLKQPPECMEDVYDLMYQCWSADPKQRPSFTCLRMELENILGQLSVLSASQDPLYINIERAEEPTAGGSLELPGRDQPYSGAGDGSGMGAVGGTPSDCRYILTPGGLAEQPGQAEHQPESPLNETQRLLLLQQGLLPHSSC
Conditions: n=1, read-out: Percent inhibition, TYRO3.

T3 sequence (P24723 whole entry): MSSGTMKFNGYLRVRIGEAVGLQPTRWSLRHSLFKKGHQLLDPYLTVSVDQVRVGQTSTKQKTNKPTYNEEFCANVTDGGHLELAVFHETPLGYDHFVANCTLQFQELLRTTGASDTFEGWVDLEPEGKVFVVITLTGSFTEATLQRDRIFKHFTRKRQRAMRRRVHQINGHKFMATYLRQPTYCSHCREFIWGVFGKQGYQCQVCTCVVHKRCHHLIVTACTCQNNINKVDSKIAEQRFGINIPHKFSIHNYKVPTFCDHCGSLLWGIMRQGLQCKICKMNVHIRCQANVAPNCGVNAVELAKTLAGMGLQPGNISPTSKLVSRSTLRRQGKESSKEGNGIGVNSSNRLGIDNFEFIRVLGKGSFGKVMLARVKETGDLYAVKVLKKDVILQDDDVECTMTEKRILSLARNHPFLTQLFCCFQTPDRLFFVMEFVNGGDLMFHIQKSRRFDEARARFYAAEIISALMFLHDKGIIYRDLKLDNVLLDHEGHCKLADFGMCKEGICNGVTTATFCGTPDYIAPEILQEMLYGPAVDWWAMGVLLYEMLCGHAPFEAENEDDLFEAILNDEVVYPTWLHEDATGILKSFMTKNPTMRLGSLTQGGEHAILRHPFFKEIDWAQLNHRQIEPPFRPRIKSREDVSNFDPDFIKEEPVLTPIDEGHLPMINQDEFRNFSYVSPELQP
T1 sequence (Q9P286 whole entry): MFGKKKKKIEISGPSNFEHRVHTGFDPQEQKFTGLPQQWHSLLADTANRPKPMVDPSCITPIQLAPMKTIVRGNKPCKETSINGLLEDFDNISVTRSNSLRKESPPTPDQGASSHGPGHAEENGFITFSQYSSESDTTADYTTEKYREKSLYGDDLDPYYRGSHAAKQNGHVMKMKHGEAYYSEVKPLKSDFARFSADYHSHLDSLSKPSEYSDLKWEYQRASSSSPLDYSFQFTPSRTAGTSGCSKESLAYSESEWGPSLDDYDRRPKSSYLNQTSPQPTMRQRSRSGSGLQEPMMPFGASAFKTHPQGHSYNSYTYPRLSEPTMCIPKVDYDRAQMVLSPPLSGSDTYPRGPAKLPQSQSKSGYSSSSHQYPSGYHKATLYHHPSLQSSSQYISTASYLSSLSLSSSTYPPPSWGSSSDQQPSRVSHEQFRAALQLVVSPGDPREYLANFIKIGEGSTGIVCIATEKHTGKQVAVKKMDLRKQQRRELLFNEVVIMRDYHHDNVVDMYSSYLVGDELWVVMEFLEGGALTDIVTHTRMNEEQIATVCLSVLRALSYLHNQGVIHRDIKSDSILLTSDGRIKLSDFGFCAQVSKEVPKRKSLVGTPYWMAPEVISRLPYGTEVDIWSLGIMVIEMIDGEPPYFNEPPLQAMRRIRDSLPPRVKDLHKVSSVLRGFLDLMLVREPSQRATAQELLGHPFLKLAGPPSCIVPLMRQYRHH

Consider `Cc1ccc(O)cc1Nc1ccnc(Nc2cccc(C(N)=O)c2)n1` [Compound 3], for which the inhibition at 10 µM at PAK7/PAK5 came out at 67.6%; on PKAC-alpha, 0%; at PRKCH it was 0%; on PTK2, 0%; at STK36, 98.4%; on TYRO3 it was 100%.
With `Clc1ccc(Nc2ncc(-c3ccccc3)s2)cc1` [Compound 10], the inhibition at 10 µM on PAK7/PAK5, on PKAC-alpha, on PRKCH, at PTK2, on STK36 and at TYRO3 was 0% in each case.
As for `c1ccc(COc2cccc(-c3ccnc4[nH]ccc34)c2)cc1` [Compound 9], the inhibition at 10 µM at PAK7/PAK5 was 0%; at PKAC-alpha, 0%; at PRKCH, 87.9%; on PTK2, 0%; on STK36 it was 0%; on TYRO3, 0%.
Turning to `Fc1cccc(COc2ccc(Nc3ncnc4c3CN(CCN3CCOCC3)CC4)cc2Cl)c1` [Compound 6], the inhibition at 10 µM on PAK7/PAK5, at PKAC-alpha, at PRKCH, on PTK2, on STK36 and at TYRO3 was 0% each time.
Turning to `C[C@@H](Oc1cc(-c2cnc3ccccn23)sc1C(N)=O)c1ccccc1Cl` [Compound 8], the inhibition at 10 µM at PAK7/PAK5, on PKAC-alpha, on PRKCH, on PTK2, at STK36 and at TYRO3 was 0% each time.
For `CN1CCN(c2ccc(Nc3nccc(-c4cnn5ncccc45)n3)cc2C#N)CC1` [Compound 1], the inhibition at 10 µM at PAK7/PAK5 was 99.2%; at PKAC-alpha it was 0%; on PRKCH, 83.4%; on PTK2, 87.2%; on STK36, 100%; on TYRO3, 70.2%.
On to `Cc1ccc(O)cc1N(C)c1ccnc(Nc2cccc(S(N)(=O)=O)c2)n1` [Compound 4], for which the inhibition at 10 µM amounted to 98.5% on PAK7/PAK5; 68.9% on PKAC-alpha; 0% at PRKCH; 93.4% at PTK2; 99.3% at STK36; 100% on TYRO3.
Turning to `COc1ccc(Nc2nccc(-c3cnn4ncccc34)n2)cc1` [Compound 2], the inhibition at 10 µM at PAK7/PAK5 amounted to 72.8%; on PKAC-alpha, 0%; on PRKCH it was 0%; on PTK2 it was 99.3%; at STK36, 98.8%; on TYRO3, 0%.
For `Nc1ncc2c(-c3ccncc3)c[nH]c2n1` [Compound 11], the inhibition at 10 µM on PAK7/PAK5 stood at 77.1%; on PKAC-alpha it was 0%; on PRKCH it was 0%; on PTK2 it was 0%; at STK36, 0%; on TYRO3, 0%.
In the case of `COc1cc(Nc2nccc(-c3sc(N)nc3-c3cccc(NC(=O)c4c(F)cccc4F)c3)n2)cc(OC)c1OC` [Compound 7], the inhibition at 10 µM at PAK7/PAK5 was 89.4%; at PKAC-alpha, 0%; at PRKCH it was 87.7%; at PTK2, 97%; on STK36, 100%; at TYRO3, 100%.

The values above are taken from publication PMC9927415, “Tyrosine Kinase Inhibitors Display Potent Activity against Cryptosporidium parvum” (Microbiology Spectrum, 2022).
